Experimental findings from BindingDB's records for doi:10.1016/j.chembiol.2009.01.014 (Duke University Medical Center, 2009) are described below.

The target of experiment [1] is Protein farnesyltransferase subunit beta/geranylgeranyltransferase type-1 subunit alpha (Homo sapiens, UniProt P49354+P49356). Description: In Vitro PFT Activity Assay. Conditions: pH 7.7; 30 °C. The method, then:
In vitro inhibition assay of human PFT was done by measuring the incorporation of [3H] FPP (Amersham Biosciences, Piscataway, NJ) into wild type H-Ras (PFT). The 60,000g post-microsomal supernatant from Daudi cells was incubated in the presence of increasing concentration of compound, H-Ras substrate, and [3H] FPP. Samples were TCA-precipitated and then filtered onto glass fiber filters; unbound [3H] FPP was washed through the filters. Samples were counted on a scintillation counter and activity compared to vehicle controls to obtain IC50 values.

Experiment [2] has as its target Protein farnesyltransferase/geranylgeranyltransferase type-1 subunit alpha / Protein farnesyltransferase subunit beta (Plasmodium falciparum, UniProt Q5EI73+Q5EI74). Description: PfPFT IC50 Determination. To be noted: pH 7.5; 37 °C. The protocol:
Assays for PfPFT activity were performed with a PFT-specific scintillation assay (SPA) kit (Amersham Biosciences, Piscataway, NJ). An amount of 1 uM biotinylated lamin B peptide was used. The concentration of [3H]farnesyl pyrophosphate (FPP) was increased beyond manufacturer recommendations to 1 uM. IC50 values were calculated using linear regression analysis of the plots of [3H]FPP prenylation versus concentration of compounds.

Each structure is given as a SMILES string.

Chain of Protein farnesyltransferase/geranylgeranyltransferase type-1 subunit alpha / Protein farnesyltransferase subunit beta (Q5EI73 1-521): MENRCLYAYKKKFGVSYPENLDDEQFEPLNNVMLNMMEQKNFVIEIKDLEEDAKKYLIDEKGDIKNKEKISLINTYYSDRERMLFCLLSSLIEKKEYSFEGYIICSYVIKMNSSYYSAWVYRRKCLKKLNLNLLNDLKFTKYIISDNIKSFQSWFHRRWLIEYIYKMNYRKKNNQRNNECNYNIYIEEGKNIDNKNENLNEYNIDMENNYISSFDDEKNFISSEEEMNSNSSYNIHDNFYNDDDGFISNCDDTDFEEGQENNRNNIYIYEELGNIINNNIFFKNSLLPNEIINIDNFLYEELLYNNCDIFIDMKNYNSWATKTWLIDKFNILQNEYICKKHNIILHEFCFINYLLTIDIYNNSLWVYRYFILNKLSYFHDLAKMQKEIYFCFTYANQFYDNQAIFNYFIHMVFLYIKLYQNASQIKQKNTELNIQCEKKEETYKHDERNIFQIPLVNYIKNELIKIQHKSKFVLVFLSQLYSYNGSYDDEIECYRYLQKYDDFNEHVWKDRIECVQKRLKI
Chain of Protein farnesyltransferase/geranylgeranyltransferase type-1 subunit alpha / Protein farnesyltransferase subunit beta (Q5EI74 1-923): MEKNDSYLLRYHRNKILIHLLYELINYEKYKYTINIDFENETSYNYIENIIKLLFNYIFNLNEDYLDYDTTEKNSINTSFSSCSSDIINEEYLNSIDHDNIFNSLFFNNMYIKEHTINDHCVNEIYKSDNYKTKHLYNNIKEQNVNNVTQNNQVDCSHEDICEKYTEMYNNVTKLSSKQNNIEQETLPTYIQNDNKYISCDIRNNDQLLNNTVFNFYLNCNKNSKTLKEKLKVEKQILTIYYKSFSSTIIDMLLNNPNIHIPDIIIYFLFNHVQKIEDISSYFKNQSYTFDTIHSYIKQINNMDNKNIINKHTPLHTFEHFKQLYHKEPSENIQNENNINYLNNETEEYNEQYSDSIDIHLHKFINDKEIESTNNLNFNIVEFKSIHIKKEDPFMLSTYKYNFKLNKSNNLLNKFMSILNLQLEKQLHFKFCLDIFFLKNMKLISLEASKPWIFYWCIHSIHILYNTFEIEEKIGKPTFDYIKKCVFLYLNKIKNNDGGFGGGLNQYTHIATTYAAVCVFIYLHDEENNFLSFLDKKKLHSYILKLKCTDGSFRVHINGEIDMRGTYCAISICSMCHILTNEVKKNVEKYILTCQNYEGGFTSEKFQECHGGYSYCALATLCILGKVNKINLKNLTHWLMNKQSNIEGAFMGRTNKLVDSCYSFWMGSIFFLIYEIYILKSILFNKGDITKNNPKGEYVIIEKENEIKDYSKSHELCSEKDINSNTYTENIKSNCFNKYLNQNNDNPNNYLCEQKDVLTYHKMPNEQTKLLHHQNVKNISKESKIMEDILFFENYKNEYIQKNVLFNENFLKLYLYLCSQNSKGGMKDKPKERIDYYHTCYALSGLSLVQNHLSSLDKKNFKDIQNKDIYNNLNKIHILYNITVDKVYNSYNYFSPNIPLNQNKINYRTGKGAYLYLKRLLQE

As for `Cn1cnc(S(=O)(=O)N(CCN(Cc2cncn2C)c2ccc(C#N)cc2)Cc2ccccc2)c1` [1-Methyl-1H-imidazole-4-sulfonic Acid Benzyl-{2-[(4-cyanophenyl)-(3-methyl-3H-imidazol-4-ylmethyl)amino]ethyl}amide], in experiment [1], the IC50 worked out at 56 nM.

With `Cn1cnc(S(=O)(=O)N(CCN(Cc2cncn2C)c2ccc(C#N)cc2)CC2CCN(C(=O)OC(C)(C)C)CC2)c1` [ethylenediamine scaffold, 4], the figures for the IC50 in experiment [1] and in experiment [2] were 3700 nM and 1.2 nM, respectively.

Take `Cc1ccccc1S(=O)(=O)N(CCN(Cc1cncn1C)c1ccc(C#N)cc1)CC1CCN(C(=O)OC(C)(C)C)CC1` [ethylenediamine scaffold, 5]: the IC50 in experiment [2] stood at 3 nM.

For the molecule `Cc1ccccc1S(=O)(=O)N(CCN(Cc1cncn1C)c1ccc(C#N)cc1)Cc1ccccc1` [ethylenediamine scaffold, 7], the half-inhibitory concentration (IC50) was 160 nM in experiment [1] and 5 nM in experiment [2].

In the case of `Cn1cncc1CN(CCN(CC1CCN(C(=O)OC(C)(C)C)CC1)S(=O)(=O)c1ccccc1-c1cccc(CCC(=O)O)c1)c1ccc(C#N)cc1` [ethylenediamine scaffold, 10], the IC50 amounted to 800 nM in experiment [1] and 70 nM in experiment [2].

By IC50 is commonly meant the midpoint of a concentration-inhibition curve.
